According to ChEMBL document CHEMBL5257142, “Targeted Degradation of KRASG12D as Potential Therapy in Cancer” (ACS Med Chem Lett, 2023):

Test system: GTPase KRas (Homo sapiens), P01116 [G12D]
Experiment: Protac activity at VHL/KRAS G12D in human ASPC1 cells assessed as induction of KRAS G12D protein degradation at 1 uM incubated for 24 hrs by luminescence based analysis relative to control
Type: cell-based

Sequence of GTPase KRas (Homo sapiens), P01116 [G12D] (P01116 whole entry G12D, looked up): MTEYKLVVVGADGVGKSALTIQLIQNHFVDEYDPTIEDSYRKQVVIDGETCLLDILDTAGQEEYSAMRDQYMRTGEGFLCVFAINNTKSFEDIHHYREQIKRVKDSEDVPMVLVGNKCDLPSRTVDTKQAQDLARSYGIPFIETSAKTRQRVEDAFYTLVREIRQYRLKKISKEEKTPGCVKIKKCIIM

SMILES	Activity
Cc1cc(N)nc(-c2c(Cl)cc3c(N4CC5CCC(C4)N5)nc(OC[C@@H]4CCCN4CCCOCCCOc4cc(-c5scnc5C)ccc4CNC(=O)[C@@H]4C[C@@H](O)CN4C(=O)[C@H](NC(=O)C4(F)CC4)C(C)(C)C)nc3c2F)c1C(F)(F)F	-5.46%
Cc1cc(N)nc(-c2c(Cl)cc3c(N4CC5CCC(C4)N5)nc(OC[C@@H]4CCCN4CCCCCCCN4CCC(c5cc(F)cc6c5CN(C5CCC(=O)NC5=O)C6=O)CC4)nc3c2F)c1C(F)(F)F (stereo partly specified)	-22.9%
Cc1ncsc1-c1ccc([C@H](C)NC(=O)[C@@H]2C[C@@H](O)CN2C(=O)[C@@H](NC(=O)CCCCN2CCC[C@H]2COc2nc(N3CC4CCC(C3)N4)c3cc(Cl)c(-c4ccc(F)c5sc(N)nc45)c(F)c3n2)C(C)(C)C)cc1	38.1%
Cc1cc(N)nc(-c2c(Cl)cc3c(N4CC5CCC(C4)N5)nc(OC[C@@H]4CCCN4CCCOCCC(=O)N[C@H](C(=O)N4C[C@H](O)C[C@H]4C(=O)NCc4ccc(-c5scnc5C)cc4)C(C)(C)C)nc3c2F)c1C(F)(F)F	-0.69%
Cc1cc(N)nc(-c2c(Cl)cc3c(N4CC5CCC(C4)N5)nc(OC[C@@H]4CCCN4CCCOCCC(=O)N[C@H](C(=O)N4C[C@H](O)C[C@H]4C(=O)N[C@@H](C)c4ccc(-c5scnc5C)cc4)C(C)(C)C)nc3c2F)c1C(F)(F)F	29.3%
Cc1ncsc1-c1ccc([C@H](C)NC(=O)[C@@H]2C[C@@H](O)CN2C(=O)[C@@H](NC(=O)CCOCCCN2CCC[C@H]2COc2nc(N3CC4CCC(C3)N4)c3cc(Cl)c(-c4ccc(F)c5sc(N)nc45)c(F)c3n2)C(C)(C)C)cc1	51.3%
